Results taken from ChEMBL document CHEMBL4507292 (2021).
pIC50, pKi: −log10 of the molar value.

Key:
[1] = molecular target: Casein kinase I isoform gamma-3 (Homo sapiens) (UniProt Q9Y6M4); conditions: Compound concentration 1000.0 nM
[2] = molecular target: Serine/threonine-protein kinase TAO2 (Homo sapiens) (UniProt Q9UL54); conditions: Compound concentration 1000.0 nM
[3] = molecular target: Mu-type opioid receptor (Homo sapiens) (UniProt P35372); conditions: Compound concentration 10.0 uM
[4] = molecular target: Prostaglandin F2-alpha receptor (Homo sapiens) (UniProt P43088); experiment: Prostanoid FP Eurofins-Panlabs radioligand binding assay; design: ligand concentration 0.95 nM; conditions: Compound concentration 10.0 uM
Caspase-6 (Homo sapiens) = Caspase-6 (Homo sapiens) (UniProt P55212); experiment: Peptidase, CASP6 (Caspase 6) Eurofins-Panlabs enzyme assay; design: substrate with concentration; conditions: Compound concentration 10.0 uM
[5] = molecular target: Beta-3 adrenergic receptor (Homo sapiens, UniProt P13945)
[6] = molecular target: Prostaglandin G/H synthase 1 (Homo sapiens) (UniProt P23219); experiment: Inhibition of Cyclooxygenase COX-1 at compound concentration of 10.0 uM in the Eurofins-Panlabs enzyme assay (Eurofins_assay_116020); conditions: Compound concentration 10.0 uM
Rattus norvegicus [7] = organism: Rattus norvegicus; experiment: Protein Serine/Threonine Kinase, PKC, Non-Selective Eurofins-Panlabs enzyme assay; conditions: Compound concentration 10.0 uM
Phosphodiesterase PDE1 = Phosphodiesterase PDE1 (Bos taurus, UniProt Q01061+P14100+A0A3Q1MCV4); experiment: (§1) Phosphodiesterase PDE1 Eurofins-Panlabs enzyme assay; format: protein assay; design: substrate with concentration [3H] cAMP + cAMP, incubation time 20 min, incubation temperature 25 °C
[8] = molecular target: Phosphodiesterase PDE1 (Bos taurus) (UniProt Q01061+P14100+A0A3Q1MCV4); experiment: as §1; format: protein assay; design: substrate with concentration [3H] cAMP + cAMP, incubation time 20 min, incubation temperature 25 °C
[9] = molecular target: Glutamate NMDA receptor (Rattus norvegicus) (UniProt P35439+Q00959+Q00960+Q00961+Q62645+Q8VHN2+Q9R1M7); conditions: Compound concentration 10.0 uM
Rattus norvegicus [10] = organism: Rattus norvegicus; experiment: Adrenergic α2, Non-selective Eurofins-Panlabs radioligand binding assay; format: protein assay; conditions: Compound concentration 10.0 uM
[11] = molecular target: Prostaglandin D2 receptor (Homo sapiens) (UniProt Q13258); experiment: Prostanoid DP Eurofins-Panlabs radioligand binding assay; conditions: Compound concentration 10.0 uM
Caspase-3 (Homo sapiens) = Caspase-3 (Homo sapiens) (UniProt P42574); experiment: Peptidase, CASP3 (Caspase 3) Eurofins-Panlabs enzyme assay; conditions: Compound concentration 10.0 uM
[12] = molecular target: Cholecystokinin receptor type A (Homo sapiens) (UniProt P32238); experiment: Inhibition of Cholecystokinin CCK1 (CCKA) at 10 µM in the Eurofins-Panlabs radioligand binding assay (Eurofins_assay_218020)
[13] = molecular target: Calcitonin receptor (Homo sapiens) (UniProt P30988); experiment: Inhibition of Calcitonin at 10 µM in the Eurofins-Panlabs radioligand binding assay (Eurofins_assay_213610)
[14] = molecular target: 5-hydroxytryptamine receptor 1A (Homo sapiens, UniProt P08908); experiment: Inhibition of Serotonin (5-Hydroxytryptamine) 5-HT1A at compound concentration of 10.0 uM in the Eurofins-Panlabs radioligand binding assay (Eurofins_assay_271110); design: ligand concentration 1.5 nM, non-specific ligand with concentration 10 uM Metergoline, incubation time 60 min, incubation temperature 25 C
[15] = (§2) Cholecystokinin CCK2 (CCKB) Eurofins-Panlabs radioligand binding assay; design: species or system Homo sapiens; ligand concentration 0.072 nM, non-specific ligand with concentration 1 µM Sincalide, incubation time 3 h, incubation temperature 25 °C
Homo sapiens [16] = organism: Homo sapiens; experiment: as §2; design: ligand concentration 0.072 nM, non-specific ligand with concentration 1 µM Sincalide, incubation time 3 h, incubation temperature 25 °C
[17] = molecular target: Cannabinoid receptor 1 (Homo sapiens) (UniProt P21554); experiment: Cannabinoid CB1 Eurofins-Panlabs radioligand binding assay; conditions: Compound concentration 10.0 uM
[18] = molecular target: B1 bradykinin receptor (Homo sapiens) (UniProt P46663); experiment: Bradykinin B1 Eurofins-Panlabs radioligand binding assay; conditions: Compound concentration 10.0 uM
Homo sapiens [19] = organism: Homo sapiens; experiment: Inhibition of Nicotinic Acetylcholine at compound concentration of 10.0 uM in the Eurofins-Panlabs radioligand binding assay (Eurofins_assay_258590); format: protein-complex assay; conditions: Compound concentration 10.0 uM
[20] = molecular target: Melanocortin receptor 3 (Homo sapiens) (UniProt P41968); experiment: Inhibition of Melanocortin MC3 at 10 µM in the Eurofins-Panlabs radioligand binding assay (Eurofins_assay_251300); design: ligand concentration 0.035 nM; conditions: Compound concentration 10.0 uM
[21] = molecular target: Tyrosine-protein phosphatase non-receptor type 2 (Homo sapiens) (UniProt P17706); experiment: Protein Tyrosine Phosphatase, PTPN2 (TCPTP) Eurofins-Panlabs enzyme assay; design: substrate with concentration DiFMUP, incubation time 60 min, incubation temperature 37 °C; conditions: Compound concentration 10.0 uM
[22] = molecular target: Prostaglandin E2 receptor EP4 subtype (Homo sapiens) (UniProt P35408); experiment: Prostanoid EP4 Eurofins-Panlabs radioligand binding assay; design: ligand concentration 0.5 nM; conditions: Compound concentration 10.0 uM
[23] = molecular target: T1, Alpha-1D adrenergic receptor (Homo sapiens) (UniProt P25100); experiment: Inhibition of Adrenergic alpha1D at 10 µM in the Eurofins-Panlabs radioligand binding assay (Eurofins_assay_203400); conditions: Compound concentration 10.0 uM
T1 sequence (whole entry): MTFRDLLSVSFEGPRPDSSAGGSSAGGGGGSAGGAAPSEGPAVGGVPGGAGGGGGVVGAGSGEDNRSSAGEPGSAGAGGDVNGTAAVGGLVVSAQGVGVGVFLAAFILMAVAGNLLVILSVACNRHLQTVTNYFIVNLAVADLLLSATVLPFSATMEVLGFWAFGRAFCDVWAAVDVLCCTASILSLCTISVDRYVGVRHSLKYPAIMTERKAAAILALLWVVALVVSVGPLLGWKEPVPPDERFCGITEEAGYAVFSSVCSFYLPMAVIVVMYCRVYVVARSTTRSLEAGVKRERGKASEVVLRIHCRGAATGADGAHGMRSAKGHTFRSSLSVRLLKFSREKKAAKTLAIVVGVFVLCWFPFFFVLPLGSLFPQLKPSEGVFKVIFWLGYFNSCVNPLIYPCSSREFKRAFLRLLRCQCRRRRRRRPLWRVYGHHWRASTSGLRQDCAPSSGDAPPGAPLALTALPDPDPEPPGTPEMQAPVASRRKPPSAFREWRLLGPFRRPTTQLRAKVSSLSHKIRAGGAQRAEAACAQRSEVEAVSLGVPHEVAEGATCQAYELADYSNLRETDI

[24] = molecular target: Oxytocin receptor (Homo sapiens) (UniProt P30559); experiment: Oxytocin Eurofins-Panlabs radioligand binding assay; conditions: Compound concentration 10.0 uM
[25] = molecular target: Bombesin receptor (Rattus norvegicus) (UniProt P52500+P24053+Q8K418); experiment: Bombesin, Non-Selective Eurofins-Panlabs radioligand binding assay; format: protein assay; conditions: Compound concentration 10.0 uM
Rattus norvegicus [26] = organism: Rattus norvegicus; experiment: Testosterone Eurofins-Panlabs radioligand binding assay; design: ligand concentration 1.5 nM; conditions: Compound concentration 10.0 uM
[27] = molecular target: Platelet-activating factor receptor (Homo sapiens) (UniProt P25105); experiment: Inhibition of Platelet Activating Factor (PAF) at 10 µM in the Eurofins-Panlabs radioligand binding assay (Eurofins_assay_265010); conditions: Compound concentration 10.0 uM
[28] = molecular target: Melatonin receptor (Gallus gallus) (UniProt P49288+P51050+P49285); experiment: Melatonin MT, Non-Selective Eurofins-Panlabs radioligand binding assay; format: protein assay; conditions: Compound concentration 10.0 uM
[29] = molecular target: cGMP-dependent 3',5'-cyclic phosphodiesterase (Homo sapiens, UniProt O00408); experiment: Phosphodiesterase PDE2 Eurofins-Panlabs enzyme assay; design: substrate with concentration [3H] cAMP + cAMP, incubation time 20 min, incubation temperature 25 °C
[30] = molecular target: Neutrophil elastase (Homo sapiens) (UniProt P08246); experiment: Peptidase, ELA2 (Neutrophil Elastase 2) Eurofins-Panlabs enzyme assay; conditions: Compound concentration 30.0 uM
[31] = Compound concentration 100.0 uM

Beta-3 adrenergic receptor, sequence (P13945 whole entry, looked up): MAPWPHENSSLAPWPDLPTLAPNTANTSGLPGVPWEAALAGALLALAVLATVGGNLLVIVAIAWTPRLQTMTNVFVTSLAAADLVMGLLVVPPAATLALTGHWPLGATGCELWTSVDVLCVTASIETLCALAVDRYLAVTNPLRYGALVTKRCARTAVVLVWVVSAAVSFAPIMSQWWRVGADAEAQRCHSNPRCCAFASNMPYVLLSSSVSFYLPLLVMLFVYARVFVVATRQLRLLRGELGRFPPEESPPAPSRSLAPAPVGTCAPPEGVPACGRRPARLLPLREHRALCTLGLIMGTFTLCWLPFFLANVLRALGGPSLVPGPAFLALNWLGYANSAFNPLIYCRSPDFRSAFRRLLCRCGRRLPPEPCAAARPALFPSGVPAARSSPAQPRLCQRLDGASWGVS
cGMP-dependent 3',5'-cyclic phosphodiesterase, sequence (O00408 whole entry): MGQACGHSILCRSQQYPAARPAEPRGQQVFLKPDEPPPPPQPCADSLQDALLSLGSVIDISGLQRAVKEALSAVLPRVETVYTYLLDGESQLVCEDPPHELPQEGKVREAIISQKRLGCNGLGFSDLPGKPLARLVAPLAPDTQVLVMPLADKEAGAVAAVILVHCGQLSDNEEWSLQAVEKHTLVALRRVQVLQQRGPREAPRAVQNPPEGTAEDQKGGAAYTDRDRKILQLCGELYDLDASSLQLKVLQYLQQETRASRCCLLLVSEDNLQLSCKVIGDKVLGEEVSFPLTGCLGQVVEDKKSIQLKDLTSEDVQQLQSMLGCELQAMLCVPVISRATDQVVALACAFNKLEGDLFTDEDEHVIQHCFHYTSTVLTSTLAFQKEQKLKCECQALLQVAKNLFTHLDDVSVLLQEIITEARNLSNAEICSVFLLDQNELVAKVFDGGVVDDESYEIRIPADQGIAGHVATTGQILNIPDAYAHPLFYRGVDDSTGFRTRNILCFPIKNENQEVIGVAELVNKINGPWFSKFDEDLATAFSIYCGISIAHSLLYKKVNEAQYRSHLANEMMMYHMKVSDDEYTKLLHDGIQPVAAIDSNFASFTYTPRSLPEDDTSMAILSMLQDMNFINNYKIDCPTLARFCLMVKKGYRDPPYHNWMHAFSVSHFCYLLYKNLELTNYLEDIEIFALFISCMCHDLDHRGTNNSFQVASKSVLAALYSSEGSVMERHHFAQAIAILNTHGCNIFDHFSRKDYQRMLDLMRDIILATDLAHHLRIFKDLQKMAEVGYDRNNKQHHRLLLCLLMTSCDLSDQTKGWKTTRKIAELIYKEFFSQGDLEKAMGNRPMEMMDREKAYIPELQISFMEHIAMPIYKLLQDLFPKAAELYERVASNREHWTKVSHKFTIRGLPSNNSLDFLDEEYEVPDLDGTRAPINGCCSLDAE
Serine/threonine-protein kinase TAO2 (Homo sapiens), sequence (Q9UL54 whole entry): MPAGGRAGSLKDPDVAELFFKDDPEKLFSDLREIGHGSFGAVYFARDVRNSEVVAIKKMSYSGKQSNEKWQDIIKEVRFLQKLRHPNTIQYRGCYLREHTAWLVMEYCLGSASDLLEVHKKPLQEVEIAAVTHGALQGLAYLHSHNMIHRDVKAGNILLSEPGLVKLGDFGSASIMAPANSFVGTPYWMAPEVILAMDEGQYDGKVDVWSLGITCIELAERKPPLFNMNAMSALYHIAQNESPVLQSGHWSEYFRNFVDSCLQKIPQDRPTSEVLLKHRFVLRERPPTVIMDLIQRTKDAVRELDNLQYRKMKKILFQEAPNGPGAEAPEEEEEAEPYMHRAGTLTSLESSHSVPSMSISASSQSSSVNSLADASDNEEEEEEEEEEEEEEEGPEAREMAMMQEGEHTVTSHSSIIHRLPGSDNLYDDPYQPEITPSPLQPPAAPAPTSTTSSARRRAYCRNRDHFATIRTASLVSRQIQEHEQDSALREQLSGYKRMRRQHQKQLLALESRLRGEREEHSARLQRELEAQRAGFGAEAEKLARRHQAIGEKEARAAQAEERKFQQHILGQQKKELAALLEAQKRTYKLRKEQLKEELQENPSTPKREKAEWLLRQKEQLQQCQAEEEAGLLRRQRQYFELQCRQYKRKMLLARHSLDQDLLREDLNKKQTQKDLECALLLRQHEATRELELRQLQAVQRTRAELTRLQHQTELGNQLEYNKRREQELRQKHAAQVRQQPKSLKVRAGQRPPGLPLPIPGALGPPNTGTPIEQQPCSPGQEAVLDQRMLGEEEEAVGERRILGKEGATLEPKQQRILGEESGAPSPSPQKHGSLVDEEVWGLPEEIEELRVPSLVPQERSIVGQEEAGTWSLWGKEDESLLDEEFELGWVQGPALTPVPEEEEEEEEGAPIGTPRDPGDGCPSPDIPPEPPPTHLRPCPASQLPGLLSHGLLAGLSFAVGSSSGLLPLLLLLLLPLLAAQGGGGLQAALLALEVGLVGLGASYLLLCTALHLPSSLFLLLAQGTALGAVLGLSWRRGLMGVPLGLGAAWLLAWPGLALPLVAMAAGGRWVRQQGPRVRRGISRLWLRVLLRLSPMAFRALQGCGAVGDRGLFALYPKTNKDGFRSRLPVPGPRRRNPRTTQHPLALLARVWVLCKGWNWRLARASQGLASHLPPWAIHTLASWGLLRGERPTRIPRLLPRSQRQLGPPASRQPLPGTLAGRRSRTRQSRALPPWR
Casein kinase I isoform gamma-3 (Homo sapiens), sequence (Q9Y6M4 whole entry, looked up, canonical isoform): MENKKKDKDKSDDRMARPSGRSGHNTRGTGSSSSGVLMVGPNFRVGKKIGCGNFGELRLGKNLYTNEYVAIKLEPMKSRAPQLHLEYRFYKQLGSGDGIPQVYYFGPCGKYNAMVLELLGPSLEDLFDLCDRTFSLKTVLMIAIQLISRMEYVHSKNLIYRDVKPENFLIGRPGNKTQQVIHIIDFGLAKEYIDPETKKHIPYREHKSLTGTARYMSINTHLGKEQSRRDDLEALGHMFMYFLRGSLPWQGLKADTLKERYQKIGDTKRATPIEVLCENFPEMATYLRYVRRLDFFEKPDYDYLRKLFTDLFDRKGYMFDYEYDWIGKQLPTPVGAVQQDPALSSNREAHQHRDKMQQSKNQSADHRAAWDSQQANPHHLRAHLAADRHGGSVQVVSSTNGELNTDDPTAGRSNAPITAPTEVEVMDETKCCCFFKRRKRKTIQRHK
5-hydroxytryptamine receptor 1A, sequence (P08908 whole entry): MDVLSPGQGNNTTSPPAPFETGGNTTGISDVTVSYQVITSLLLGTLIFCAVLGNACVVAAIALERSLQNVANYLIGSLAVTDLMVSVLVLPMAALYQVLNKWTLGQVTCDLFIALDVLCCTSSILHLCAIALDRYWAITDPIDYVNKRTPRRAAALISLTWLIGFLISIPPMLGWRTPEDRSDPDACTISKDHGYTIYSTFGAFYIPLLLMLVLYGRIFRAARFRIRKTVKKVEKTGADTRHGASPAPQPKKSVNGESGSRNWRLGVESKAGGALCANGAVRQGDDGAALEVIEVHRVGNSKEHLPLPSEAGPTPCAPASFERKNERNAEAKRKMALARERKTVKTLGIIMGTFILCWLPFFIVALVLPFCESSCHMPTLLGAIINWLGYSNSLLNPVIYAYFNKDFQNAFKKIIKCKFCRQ
Cannabinoid receptor 1 (Homo sapiens), sequence (P21554 whole entry): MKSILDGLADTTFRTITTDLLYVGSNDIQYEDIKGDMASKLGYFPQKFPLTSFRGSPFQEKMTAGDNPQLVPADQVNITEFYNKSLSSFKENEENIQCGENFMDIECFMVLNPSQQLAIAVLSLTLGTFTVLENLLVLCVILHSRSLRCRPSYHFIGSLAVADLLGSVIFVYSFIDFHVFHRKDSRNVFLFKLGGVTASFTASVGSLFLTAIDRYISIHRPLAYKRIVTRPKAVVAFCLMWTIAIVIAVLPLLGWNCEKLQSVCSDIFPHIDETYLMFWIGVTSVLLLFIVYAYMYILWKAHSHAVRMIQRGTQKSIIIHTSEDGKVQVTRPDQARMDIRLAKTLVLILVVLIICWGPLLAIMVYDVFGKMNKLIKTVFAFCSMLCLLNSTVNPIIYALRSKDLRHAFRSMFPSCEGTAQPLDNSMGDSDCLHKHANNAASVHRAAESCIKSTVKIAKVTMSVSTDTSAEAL
B1 bradykinin receptor (Homo sapiens), sequence (P46663 whole entry): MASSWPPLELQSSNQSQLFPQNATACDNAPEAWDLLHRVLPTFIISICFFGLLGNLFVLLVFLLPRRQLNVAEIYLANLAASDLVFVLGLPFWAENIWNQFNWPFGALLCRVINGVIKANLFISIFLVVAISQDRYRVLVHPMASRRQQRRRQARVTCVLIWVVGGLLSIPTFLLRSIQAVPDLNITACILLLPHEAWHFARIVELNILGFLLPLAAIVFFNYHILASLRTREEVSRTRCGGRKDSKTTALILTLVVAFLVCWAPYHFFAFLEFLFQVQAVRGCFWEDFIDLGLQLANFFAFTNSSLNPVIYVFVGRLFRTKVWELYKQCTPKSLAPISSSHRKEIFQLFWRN
Tyrosine-protein phosphatase non-receptor type 2 (Homo sapiens), sequence (P17706 whole entry): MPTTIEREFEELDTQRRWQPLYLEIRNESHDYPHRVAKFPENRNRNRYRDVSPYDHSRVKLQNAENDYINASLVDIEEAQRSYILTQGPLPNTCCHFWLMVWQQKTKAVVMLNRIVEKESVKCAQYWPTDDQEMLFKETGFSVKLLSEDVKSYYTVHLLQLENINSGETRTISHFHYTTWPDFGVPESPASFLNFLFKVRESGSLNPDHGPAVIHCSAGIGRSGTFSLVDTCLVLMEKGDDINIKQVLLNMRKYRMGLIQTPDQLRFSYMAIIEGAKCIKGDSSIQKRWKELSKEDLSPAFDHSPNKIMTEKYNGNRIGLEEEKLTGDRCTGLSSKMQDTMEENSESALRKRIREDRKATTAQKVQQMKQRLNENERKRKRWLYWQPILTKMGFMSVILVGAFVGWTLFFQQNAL
Caspase-6 (Homo sapiens), sequence (P55212 24-179 limits assumed): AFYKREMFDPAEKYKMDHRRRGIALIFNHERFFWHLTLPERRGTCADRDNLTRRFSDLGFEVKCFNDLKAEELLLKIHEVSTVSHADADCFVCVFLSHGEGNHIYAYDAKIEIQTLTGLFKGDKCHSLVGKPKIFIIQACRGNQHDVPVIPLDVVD
Caspase-6 (Homo sapiens), sequence (P55212 194-293 limits assumed): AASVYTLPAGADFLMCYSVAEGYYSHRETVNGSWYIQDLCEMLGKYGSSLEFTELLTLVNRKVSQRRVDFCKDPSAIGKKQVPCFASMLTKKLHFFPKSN

Molecule `Cc1c(C(=O)O)cc(-c2ccc(C3CCNCC3)cc2)c2ccc(-c3ccc(C(F)(F)F)cc3)cc12` [PPTN-NC] has a residual activity [1] of 100% and a residual activity [2] of 100%.

`O=C(O)c1cc(-c2ccc(C3CCNCC3)cc2)c2ccc(-c3ccc(C(F)(F)F)cc3)cc2c1` [PPTN] gave an inhibition [3] of -1%, an inhibition [4] of 15% and an inhibition (Caspase-6 (Homo sapiens)) of -8%. The inhibition ([5]; Compound concentration 0.01 uM) was -2%, the inhibition ([5]; Compound concentration 0.1 uM) was -8% and the inhibition ([5]; Compound concentration 1.0 uM) was 0%. It also gave an inhibition ([5]; Compound concentration 10.0 uM) of 53%, an inhibition [6] of 4% and an inhibition (Rattus norvegicus [7]) of -5%. The IC50 (Phosphodiesterase PDE1) was 17.6 µM, the inhibition ([8]; Compound concentration 0.1 uM) was -8% and the inhibition ([8]; Compound concentration 1.0 uM) was -5%. It also gave an inhibition ([8]; Compound concentration 10.0 uM) of 51%, an inhibition [8, 31] of 70% and a residual activity [1] of 100%. The inhibition [9] was -4%, the inhibition (Rattus norvegicus [10]) was -1% and the inhibition [11] was 12%. The inhibition (Caspase-3 (Homo sapiens)) was 3%, the inhibition [12] was 10% and the inhibition [13] was 5%. For the same molecule, the pIC50 [14] was 5.15, the pKi [14] was 5.40 and the pIC50 [15] was 5.00. The inhibition (Homo sapiens [16]; Compound concentration 0.01 uM) was 3%, the inhibition (Homo sapiens [16]; Compound concentration 0.1 uM) was -1% and the inhibition (Homo sapiens [16]; Compound concentration 1.0 uM) was 0%. It also gave an inhibition (Homo sapiens [16]; Compound concentration 10.0 uM) of 48%, an inhibition [17] of -6% and a residual activity [2] of 100%. For the same molecule, the inhibition [18] was 12%, the inhibition (Homo sapiens [19]) was 0% and the inhibition [20] was 34%. The inhibition [21] was -4%, the inhibition [22] was 37% and the inhibition [23] was -5%. The inhibition [24] was 0%, the inhibition [25] was 4% and the inhibition (Rattus norvegicus [26]) was 26%. It also gave an inhibition [27] of 4%, an inhibition [28] of -7% and a pIC50 [29] of 4.06. The inhibition ([29]; Compound concentration 1.0 uM) was -3%, the inhibition ([29]; Compound concentration 10.0 uM) was 4% and the inhibition [29, 31] was 55%. It also gave an inhibition [30] of -4%.
